pIC50: −log10 of the molar value.
Experiments:
Experiment in all cases: drug activity profiling cytotoxicity
Assay type in all cases: cell-based
Hs 766T = conditions: Hs766T; Hs 766T cell line, Pancreas; read-out: Aza-T-dCyd IC50
Procedure, shortened: (§1)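 Aza-T-dCyd profiled, cytotoxicity endpoint, 200-line panel, biomarker-oriented.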

T98G = conditions: Homo sapiens; T98G cell line, CNS (Glioma); read-out: Aza-T-dCyd IC50
Procedure, shortened: as §1

DOHH-2 = conditions: Homo sapiens; DOHH-2 cell line, B-cell lymphoma; read-out: Aza-T-dCyd IC50
Procedure, shortened: as §1

A388 = A388 cell line, Skin (Head and Neck); read-out: Aza-T-dCyd IC50
Procedure, shortened: as §1

PSN-1 = conditions: Homo sapiens, PSN1; PSN-1 cell line, Pancreas; read-out: Aza-T-dCyd IC50
Procedure, shortened: as §1

WM-266-4 = conditions: Homo sapiens; WM-266-4 cell line, Skin (Melanoma); read-out: Aza-T-dCyd IC50
Procedure, shortened: as §1

MEG01 = conditions: Homo sapiens, MEG-01; MEG01 cell line, CML; read-out: Aza-T-dCyd IC50
Procedure, shortened: as §1

LS-174T = conditions: Homo sapiens, LS174T; LS-174T cell line, Colon; read-out: Aza-T-dCyd IC50
Procedure, shortened: as §1

DB = conditions: Homo sapiens; DB cell line, B-cell lymphoma; read-out: Aza-T-dCyd IC50
Procedure, shortened: as §1

H9 = conditions: Homo sapiens; H9 cell line, T-cell Lymphoma; read-out: Aza-T-dCyd IC50
Procedure, shortened: as §1

C-4 II = conditions: Homo sapiens; C-4 II cell line, Female GU (Cervix); read-out: Aza-T-dCyd IC50
Procedure, shortened: as §1

A427 = conditions: Homo sapiens, A-427; A427 cell line, Lung (NSCLC); read-out: Aza-T-dCyd IC50
Procedure, shortened: as §1

ZR-75-1 = conditions: Homo sapiens; ZR-75-1 cell line, Breast; read-out: Aza-T-dCyd IC50
Procedure, shortened: as §1

SW982 = conditions: Homo sapiens; SW982 cell line, Sarcoma; read-out: Aza-T-dCyd IC50
Procedure, shortened: as §1

DMS273 = conditions: Homo sapiens, DMS-273; DMS273 cell line, Lung (SCLC); read-out: Aza-T-dCyd IC50
Procedure, shortened: as §1

U-118 MG = conditions: Homo sapiens; U-118 MG cell line, CNS (Glioma); read-out: Aza-T-dCyd IC50
Procedure, shortened: as §1

SK-BR-3 = conditions: Homo sapiens; SK-BR-3 cell line, Breast; read-out: Aza-T-dCyd IC50
Procedure, shortened: as §1

Jurkat = conditions: Homo sapiens; Jurkat cell line, ALL; read-out: Aza-T-dCyd IC50
Procedure, shortened: as §1

U-87 MG = conditions: Homo sapiens; U-87 MG cell line, CNS (Glioma); read-out: Aza-T-dCyd IC50
Procedure, shortened: as §1

YAPC = conditions: Homo sapiens; YAPC cell line, Pancreas; read-out: Aza-T-dCyd IC50
Procedure, shortened: as §1

SU.86.86 = conditions: Homo sapiens; SU.86.86 cell line, Pancreas; read-out: Aza-T-dCyd IC50
Procedure, shortened: as §1

SW837 = conditions: Homo sapiens; SW837 cell line, Colon; read-out: Aza-T-dCyd IC50
Procedure, shortened: as §1

NU-DUL-1 = conditions: Homo sapiens; NU-DUL-1 cell line, B-cell lymphoma; read-out: Aza-T-dCyd IC50
Procedure, shortened: as §1

SW872 = conditions: Homo sapiens; SW872 cell line, Sarcoma; read-out: Aza-T-dCyd IC50
Procedure, shortened: as §1

SKMES1 = conditions: Homo sapiens, SK-MES-1; SKMES1 cell line, Lung (NSCLC); read-out: Aza-T-dCyd IC50
Procedure, shortened: as §1

SU-DHL-10 = conditions: Homo sapiens, SU-DHL10; SU-DHL-10 cell line, B-cell lymphoma; read-out: Aza-T-dCyd IC50
Procedure, shortened: as §1

A172 = conditions: Homo sapiens, A 172; A172 cell line, CNS (Glioma); read-out: Aza-T-dCyd IC50
Procedure, shortened: as §1

SW579 = SW579 cell line, Endocrine (Thyroid); read-out: Aza-T-dCyd IC50
Procedure, shortened: as §1

Colo 320DM = conditions: Homo sapiens; Colo 320DM cell line, Colon; read-out: Aza-T-dCyd IC50
Procedure, shortened: as §1

FaDu = conditions: Homo sapiens; FaDu cell line, Head and Neck; read-out: Aza-T-dCyd IC50
Procedure, shortened: as §1

For Nc1ncn([C@H]2CC(O)[C@@H](CO)S2)c(=O)n1 (stereo partly drawn) [Aza-T-dCyd, 4′-thio-5-aza-2′-deoxycytidine], the pIC50 (Hs 766T) was 5.03, the pIC50 (T98G) was 5.86 and the pIC50 (DOHH-2) was 6.22. It also gave a pIC50 (A388) of 6.72, a pIC50 (PSN-1) of 6.72 and a pIC50 (WM-266-4) of 6.37. It also gave a pIC50 (MEG01) of 5.97, a pIC50 (LS-174T) of under 5.00 and a pIC50 (DB) of 6.87. The pIC50 (H9) was 6.33, the pIC50 (C-4 II) was 6.11 and the pIC50 (A427) was 7.11. The pIC50 (ZR-75-1) was under 5.00, the pIC50 (SW982) was 6.77 and the pIC50 (DMS273) was 5.25. It also gave a pIC50 (U-118 MG) of under 5.00, a pIC50 (SK-BR-3) of 5.03 and a pIC50 (Jurkat) of 7.16. It also gave a pIC50 (U-87 MG) of 5.79, a pIC50 (YAPC) of 5.98 and a pIC50 (SU.86.86) of 6.29. The pIC50 (SW837) was 6.45, the pIC50 (NU-DUL-1) was 7.61 and the pIC50 (SW872) was 6.14. The pIC50 (SKMES1) was 6.50, the pIC50 (SU-DHL-10) was 7.44 and the pIC50 (A172) was under 5.00. It also gave a pIC50 (SW579) of 5.98, a pIC50 (Colo 320DM) of 7.03 and a pIC50 (FaDu) of 6.68.

— US12708630B2, “Combined therapy of 4′-thio-5-aza-2′-deoxycytidine and Venetoclax” (PINOTBIO, INC., priority 2021, dated 2026)
